# Measured values taken from US9730937B2, “RAF kinase modulator compounds and methods of use thereof” (AMBIT BIOSCIENCES CORPORATION, priority 2008, dated 2017).
# Counter-ions that a name gives are not always drawn. Like-named read-outs stand apart in the source and are kept apart here.
# Test system: panel of 290 distinct kinases (321 in the larger panel), excluding mutant variants
# [1] = no asterisk: panel of 290 distinct kinases
# [2] = kinase selectivity score, value marked * (larger kinase panel), class symbols
# [3] = asterisk: panel of 321 distinct kinases
# Procedure: The liganded beads were blocked with excess biotin and washed with blocking buffer (SeaBlock (Pierce), 1% BSA, 0.05% Tween 20, 1 mM DTT) to remove unbound ligand and to reduce non-specific binding. […] Test compounds were prepared as 100× stocks in DMSO and rapidly diluted into the aqueous environment. DMSO was added to control assays lacking a test compound. Primary screen interactions were performed in polypropylene 384-well plates in a final volume of 34 μL, while Kd determinations were performed in polystyrene 96-well plates in a final volume of 135 μL. […] The kinase concentration in the eluates was measured by quantitative PCR. Each kinase was tested individually against each compound. KdS were determined using eleven serial threefold dilutions. A selectivity score, which is a quantitative measure of selectivity of a compound against a panel of enzymes, may be calculated for a compound by dividing the number of enzymes for which a compound meets a set criteria, (for example, a binding constant of 100 nM or less), by the total number of enzymes tested. […] (Note, for those compounds tested in a larger kinase panel, as indicated by an asterisk (*) next to the S35 score, the divisor is 321 (i.e. the larger panel contains 321 distinct kinases, excluding mutant variants.)).
structure (smiles),measurement,setting,value
"CCOc1cc2ncnc(Oc3cccc(NC(=O)Nc4cc(C(C)(CF)CF)on4)c3)c2cc1OC [Ex 386, 1-(5-(1,3-difluoro-2-methylpropan-2-yl)isoxazol-3-yl)-3-(3-(7-ethoxy-6-methoxyquinazolin-4-yloxy)phenyl)urea]",S35,[1],C (0.20 < C ≦ 0.40)
"COc1cc2ncnc(Sc3cccc(NC(=O)Nc4cc(C(C)(C)C)nn4-c4cccc(F)c4)c3)c2cc1OC [Ex 360, 1-(3-tert-butyl-1-(3-fluorophenyl)-1H-pyrazol-5-yl)-3-(3-(6,7-dimethoxyquinazolin-4-ylthio)phenyl)urea]",S35,[1],D (D > 0.40)
"COc1cc2ncnc(Oc3cccc(NC(=O)Nc4ccc(C(F)(F)F)c(F)c4)c3)c2cc1OC [Ex 150, 1-(3-(6,7-dimethoxyquinazolin-4-yloxy)phenyl)-3-(3-fluoro-4-(trifluoromethyl)phenyl)urea]",S35,[2],C* (0.20 < C ≦ 0.40)
"COc1cc2ncnc(Oc3cc(NC(=O)Nc4cc(C(C)(C)F)no4)ccc3F)c2cc1OC [Ex 293, 1-(3-(6,7-dimethoxyquinazolin-4-yloxy)-4-fluorophenyl)-3-(3-(2-fluoropropan-2-yl)isoxazol-5-yl)urea]",S35,[1],C (0.20 < C ≦ 0.40)
"COc1cc2c(Oc3cccc(NC(=O)Nc4cc(C(C)(C)F)no4)c3)ncnc2cc1OCCN1CCOCC1 [Ex 251, 1-(3-(2-fluoropropan-2-yl)isoxazol-5-yl)-3-(3-(6-methoxy-7-(2-morpholinoethoxy)quinazolin-4-yloxy)phenyl)urea]",S35,[3],C* (0.20 < C ≦ 0.40)
"COc1cc2ncnc(Oc3ccc(Cl)c(NC(=O)Nc4cc(C(C)(C)C)nn4-c4ccccc4)c3)c2cc1OC [Ex 301, 1-(3-tert-butyl-1-phenyl-1H-pyrazol-5-yl)-3-(2-chloro-5-(6,7-dimethoxyquinazolin-4-yloxy)phenyl)urea]",S35,[1],D (D > 0.40)
"COc1cc2ncnc(Sc3cccc(NC(=O)Nc4cc(C(C)(C)C)nn4-c4cccc(Cl)c4)c3)c2cc1OC [Ex 364, 1-(3-tert-butyl-1-(3-chlorophenyl)-1H-pyrazol-5-yl)-3-(3-(6,7-dimethoxyquinazolin-4-ylthio)phenyl)urea]",S35,[1],D (D > 0.40)
"COCCOc1cc2ncnc(Oc3cccc(NC(=O)Nc4cc(C5CCOCC5)no4)c3)c2cc1OC [Ex 216, 1-(3-(6-methoxy-7-(2-methoxyethoxy)quinazolin-4-yloxy)phenyl)-3-(3-(tetrahydro-2H-pyran-4-yl)isoxazol-5-yl)urea]",S35,[3],B* (0.10 < B ≦ 0.20)
"COCCOc1cc2ncnc(Oc3cccc(NC(=O)Nc4cc(C(C)(C)C)nn4-c4ccc(C)cc4)c3)c2cc1OC [Ex 276, 1-(3-tert-butyl-1-p-tolyl-1H-pyrazol-5-yl)-3-(3-(6-methoxy-7-(2-methoxyethoxy)quinazolin-4-yloxy)phenyl)urea]",S35,[1],D (D > 0.40)
"COc1cc2ncnc(Oc3cccc(NC(=O)Nc4cc(C(C)(C)CN5CCOCC5)on4)c3)c2cc1OC [Ex 302, 1-(3-(6,7-dimethoxyquinazolin-4-yloxy)phenyl)-3-(5-(2-methyl-1-morpholinopropan-2-yl)isoxazol-3-yl)urea]",S35,[1],B (0.10 < B ≦ 0.20)
"CCOC(=O)Cn1nc(C(C)(C)C)cc1NC(=O)Nc1cccc(Sc2ncnc3cc(OCCOC)c(OC)cc23)c1 [Ex 237, ethyl 2-[3-tert-butyl-5-(3-{3-[6-methoxy-7-(2-methoxyethoxy)quinazolin-4-ylthio]phenyl}ureido)-1H-pyrazol-1-yl]acetate]",S35,[3],C* (0.20 < C ≦ 0.40)
"COc1cc2ncnc(Oc3ccc(Cl)c(NC(=O)Nc4cc(C(F)(F)F)nn4-c4ccccc4)c3)c2cc1OC [Ex 300, 1-(2-chloro-5-(6,7-dimethoxyquinazolin-4-yloxy)phenyl)-3-(1-phenyl-3-(trifluoromethyl)-1H-pyrazol-5-yl)urea]",S35,[1],C (0.20 < C ≦ 0.40)
"COc1cc2ncnc(Sc3cccc(NC(=O)Nc4cc(C(C)(C)C)nn4-c4ccc(C)cc4C)c3)c2cc1OC [Ex 284, 1-(3-tert-butyl-1-(2,4-dimethylphenyl)-1H-pyrazol-5-yl)-3-(3-(6,7-dimethoxyquinazolin-4-ylthio)phenyl)urea]",S35,[1],C (0.20 < C ≦ 0.40)
"COCCOc1cc2ncnc(Oc3cccc(NC(=O)Nc4cc(C(F)(F)F)n(C)n4)c3)c2cc1OC [Ex 208, 1-{3-[6-methoxy-7-(2-methoxyethoxy)quinazolin-4-yloxy]phenyl}-3-[1-methyl-5-(trifluoromethyl)-1H-pyrazol-3-yl]urea]",S35,[3],C* (0.20 < C ≦ 0.40)
"COc1cc2ncnc(Sc3cccc(NC(=O)Nc4cc(C5(C(F)(F)F)CC5)on4)c3)c2cc1OC [Ex 378, 1-(3-(6,7-dimethoxyquinazolin-4-ylthio)phenyl)-3-(5-(1-(trifluoromethyl)cyclopropyl)isoxazol-3-yl)urea]",S35,[1],C (0.20 < C ≦ 0.40)
"COc1cc2ncnc(Sc3cccc(NC(=O)Nc4cccc(C(C)(C)C#N)c4)c3)c2cc1OC [Ex 279, 1-(3-(2-cyanopropan-2-yl)phenyl)-3-(3-(6,7-dimethoxyquinazolin-4-ylthio)phenyl)urea]",S35,[1],C (0.20 < C ≦ 0.40)
"COc1cc2ncnc(Sc3cccc(NC(=O)Nc4ccc(C(F)(F)F)cc4)c3)c2cc1OC [Ex 184, 1-(3-(6,7-dimethoxyquinazolin-4-ylthio)phenyl)-3-(4-(trifluoromethyl)phenyl)urea]",S35,[2],C* (0.20 < C ≦ 0.40)
"COCCOc1cc2ncnc(Sc3cccc(NC(=O)Nc4cc(C(F)(F)F)nn4-c4ccc(F)cc4)c3)c2cc1OC [Ex 242, 1-[1-(4-fluorophenyl)-3-(trifluoromethyl)-1H-pyrazol-5-yl]-3-{3-[6-methoxy-7-(2-methoxyethoxy)quinazolin-4-ylthio]phenyl}urea]",S35,[3],C* (0.20 < C ≦ 0.40)
"COc1cc2ncnc(Oc3cc(NC(=O)Nc4cc(C(C)(C)C)on4)c(F)cc3F)c2cc1OC [Ex 270, 1-(5-tert-butylisoxazol-3-yl)-3-(5-(6,7-dimethoxyquinazolin-4-yloxy)-2,4-difluorophenyl)urea]",S35,[1],D (D > 0.40)
"COCCOc1cc2ncnc(Sc3cccc(NC(=O)Nc4cc(C(F)(F)F)nn4C)c3)c2cc1OC [Ex 239, 1-{3-[6-methoxy-7-(2-methoxyethoxy)quinazolin-4-ylthio]phenyl}-3-[1-methyl-3-(trifluoromethyl)-1H-pyrazol-5-yl]urea]",S35,[3],D* (D > 0.40)
"COc1cc2ncnc(Oc3cccc(NC(=O)Nc4cc(C(C)(C)C)on4)c3C)c2cc1OC [Ex 290, 1-(5-tert-butylisoxazol-3-yl)-3-(3-(6,7-dimethoxyquinazolin-4-yloxy)-2-methylphenyl)urea]",S35,[1],C (0.20 < C ≦ 0.40)
"COc1cc2ncnc(Oc3cccc(NC(=O)Nc4cc(C(F)(F)F)no4)c3)c2cc1OC [Ex 254, 1-(3-(6,7-dimethoxyquinazolin-4-yloxy)phenyl)-3-(3-(trifluoromethyl)isoxazol-5-yl)urea]",S35,[3],C* (0.20 < C ≦ 0.40)
"COc1cc2ncnc(Oc3cccc(NC(=O)Nc4cc(C5(C(F)(F)F)CC5)nn4-c4ccccc4)c3)c2cc1OC [Ex 137, 1-(3-(6,7-dimethoxyquinazolin-4-yloxy)phenyl)-3-(1-phenyl-3-(1-(trifluoromethyl)cyclopropyl)-1H-pyrazol-5-yl)urea]",S35,[2],D* (D > 0.40)
"COc1cc2ncnc(Oc3cccc(NC(=O)Nc4cc(C(F)(F)F)nn4-c4ccccc4)c3C)c2cc1OC [Ex 291, 1-(3-(6,7-Dimethoxyquinazolin-4-yloxy)-2-methylphenyl)-3-(1-phenyl-3-(trifluoromethyl)-1H-pyrazol-5-yl)urea]",S35,[1],B (0.10 < B ≦ 0.20)
"COCCOc1cc2ncnc(Oc3cccc(NC(=O)Nc4cc(C(F)(F)F)nn4C)c3)c2cc1OC [Ex 220, 1-{3-[6-methoxy-7-(2-methoxyethoxy)quinazolin-4-yloxy]phenyl}-3-[1-methyl-3-(trifluoromethyl)-1H-pyrazol-5-yl]urea]",S35,[3],C* (0.20 < C ≦ 0.40)
"COc1cc2ncnc(Oc3cccc(NC(=O)Nc4cc(C(C)(C)C(F)(F)F)on4)c3F)c2cc1OC [Ex 265, 1-(3-(6,7-dimethoxyquinazolin-4-yloxy)-2-fluorophenyl)-3-(5-(1,1,1-trifluoro-2-methylpropan-2-yl)isoxazol-3-yl)urea]",S35,[1],C (0.20 < C ≦ 0.40)
"COc1cc2ncnc(Oc3cc(NC(=O)Nc4cc(C(C)(C)C(F)(F)F)on4)ccc3F)c2cc1OC [Ex 266, 1-(3-(6,7-dimethoxyquinazolin-4-yloxy)-4-fluorophenyl)-3-(5-(1,1,1-trifluoro-2-methylpropan-2-yl)isoxazol-3-yl)urea]",S35,[1],C (0.20 < C ≦ 0.40)
"CCc1cc(NC(=O)Nc2cccc(Sc3ncnc4cc(OC)c(OC)cc34)c2)n(-c2ccccc2)n1 [Ex 399, 1-(3-(6,7-dimethoxyquinazolin-4-ylthio)phenyl)-3-(3-ethyl-1-phenyl-1H-pyrazol-5-yl)urea]",S35,[1],C (0.20 < C ≦ 0.40)
"COCCOc1cc2ncnc(Sc3cccc(NC(=O)Nc4cc(C(C)(C)C)nn4-c4ccccc4)c3)c2cc1OC [Ex 236, 1-(3-tert-butyl-1-phenyl-1H-pyrazol-5-yl)-3-(3-(6-methoxy-7-(2-methoxyethoxy)quinazolin-4-ylthio)phenyl)urea]",S35,[3],D* (D > 0.40)
"COc1cc2ncnc(Oc3cccc(NC(=O)Nc4cccc(C(C)(C)C#N)c4)c3)c2cc1OC [Ex 278, 1-(3-(2-cyanopropan-2-yl)phenyl)-3-(3-(6,7-dimethoxyquinazolin-4-yloxy)phenyl)urea]",S35,[1],C (0.20 < C ≦ 0.40)
"COc1cc2ncnc(Sc3cccc(NC(=O)Nc4cc(C5CCC5)nn4-c4ccccc4)c3)c2cc1OC [Ex 356, 1-(3-cyclobutyl-1-phenyl-1H-pyrazol-5-yl)-3-(3-(6,7-dimethoxyquinazolin-4-ylthio)phenyl)urea]",S35,[1],C (0.20 < C ≦ 0.40)
"CCOC(=O)Cn1nc(C(C)(C)C)cc1NC(=O)Nc1cccc(Oc2ncnc3cc(OCCOC)c(OC)cc23)c1 [Ex 224, ethyl 2-[3-tert-butyl-5-(3-{3-[6-methoxy-7-(2-methoxyethoxy)quinazolin-4-yloxy]phenyl}ureido)-1H-pyrazol-1-yl]acetate hydrochloride]",S35,[3],A* (A ≦ 0.10)
"COCCOc1cc2ncnc(Sc3cccc(NC(=O)Nc4ccc(C(F)(F)F)c(F)c4)c3)c2cc1OC [Ex 231, 1-(3-fluoro-4-(trifluoromethyl)phenyl)-3-(3-(6-methoxy-7-(2-methoxyethoxy)quinazolin-4-ylthio)phenyl)urea]",S35,[3],B* (0.10 < B ≦ 0.20)
